Read-outs that look alike come from different tables or passages of the source. Marks after values point to notes of the source that are not given here. Bounds are passed on as bounds.

In assay [1] the test system is human cervical carcinoma Hela cells. The experiment in a line: MTT cell viability assay, Hela. Format: cell-based. The settings on record: 48 h, read-out: Cell viability as a percentage of the cells treated with DMSO, Hela. The gist of the method: (§1)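 Cells cultured in DMEM with 10% FBS were treated with compounds at 20 uM or 40 uM. Viability was read by MTT and expressed as a percentage of DMSO-treated cells.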
Background: Tetrazolium assays rely on reduction of a dye to a coloured formazan, in cell work by metabolically active cells.

In assay [2] the test system is inflammatory cytokines in tissues of db/db mice. The experiment in a line: Inflammatory cytokine mRNA levels in tissues of high-fat diet fed db/db mice (RT-PCR). Format: in vivo, mouse. As to conditions: 5 mg/kg. From the text:
In this example, we detected the levels of various inflammatory cytokines including iNOS, IFNγ, TGFβ, TNFα, COX2, IL-1β, IL-6, SAA1, MIP-1α and CD36 in liver, kidney, white adipose tissue (WAT) in various mice models, including wild type mice treated with APAP in example 4, high-fat diet fed diabetic and obesity db/db and KK-Ay mice in example 5, high-fat diet fed wild-type mice in Example 5, as well as in primary hepatocytes with LPS induced inflammation, using RT-PCR.

Assay [3] has as its system human breast cancer MCF7 cells. Briefly: MTT cell viability assay, MCF-7. Format: cell-based. The settings on record: 48 h, read-out: Cell viability as a percentage of the cells treated with DMSO, MCF-7. Summed up: as §1
Assay [4] relates to human colorectal adenocarcinoma HCT15 cells. The experiment in a line: MTT cell viability assay, HCT15. Format: cell-based. The settings on record: 48 h, read-out: Cell viability as a percentage of the cells treated with DMSO, HCT15. The gist of the method: as §1
The subject of another assay is db/db mice. Briefly: Hepatic triglyceride, liver histology, serum ALT and ALP in high-fat diet fed db/db mice. Format: in vivo, mouse. As to conditions: 10 mg/kg once daily for 10 days. The gist of the method: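 High-fat diet fed db/db mice aged 8-10 weeks dosed 10 mg/kg compound once daily for 10 days. Liver sections stained with H&E and 0.3% oil red O; hepatic triglyceride measured by tissue assay kit; serum ALP and ALT activities measured by kit.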

The target in a further assay is T1, full-length FXR (Homo sapiens, UniProt Q96RI1).
T1 construct: The cells were co-transfected with plasmids encoding full-length FXR and the cognate luciferase reporter EcRE-Luc; expressed in transfected cells; host or cells: COS-7
T1 sequence (Q96RI1 1-486): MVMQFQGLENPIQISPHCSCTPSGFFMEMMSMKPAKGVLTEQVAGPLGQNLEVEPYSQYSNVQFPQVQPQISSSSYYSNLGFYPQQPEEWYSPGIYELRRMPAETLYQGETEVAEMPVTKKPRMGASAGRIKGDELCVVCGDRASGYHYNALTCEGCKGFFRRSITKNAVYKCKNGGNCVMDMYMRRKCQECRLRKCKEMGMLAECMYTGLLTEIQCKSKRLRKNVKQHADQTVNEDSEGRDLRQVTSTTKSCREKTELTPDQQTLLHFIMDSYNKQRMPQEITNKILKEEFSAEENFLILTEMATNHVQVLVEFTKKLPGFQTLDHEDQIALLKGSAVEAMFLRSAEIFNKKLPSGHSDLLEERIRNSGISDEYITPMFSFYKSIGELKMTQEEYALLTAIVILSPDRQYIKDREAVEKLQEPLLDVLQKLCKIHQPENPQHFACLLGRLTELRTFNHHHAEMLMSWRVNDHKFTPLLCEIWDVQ
Briefly: Cell-based FXR transactivation, EcRE luciferase reporter in COS-7 cells. As to conditions: Table 2. The gist of the method: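 COS-7 cells were transiently cotransfected with full-length FXR, EcRE-Luc reporter and a renilla control. Ligands were added 5 h after transfection, and cells were harvested 24 h later. Firefly luciferase was normalized to renilla in a dual-luciferase read-out.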
(Reporter assays use an easily measured gene product as a stand-in for the process of interest.)

Assay [5] has as its target T2, FXR ligand binding domain (LBD) (Homo sapiens, UniProt Q96RI1).
T2 construct: made in house
T2 sequence (Q96RI1 262-486 limits assumed): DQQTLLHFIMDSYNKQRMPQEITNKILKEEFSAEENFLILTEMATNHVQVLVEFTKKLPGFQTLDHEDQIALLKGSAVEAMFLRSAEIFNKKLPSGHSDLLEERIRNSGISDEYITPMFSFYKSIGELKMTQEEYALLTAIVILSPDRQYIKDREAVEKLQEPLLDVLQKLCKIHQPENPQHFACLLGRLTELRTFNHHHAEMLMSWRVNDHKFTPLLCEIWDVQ
The experiment in a line: AlphaScreen assay: FXR LBD recruitment of coregulator peptide motifs (SRC2-3, SRC1-2). The settings on record: Table 2. Format: biochemical. (In general: Bead proximity is the source of the signal in Alpha formats.)

The subject of assay [6] is RA-resistant human colon cancer HCT116 cells. The experiment in a line: MTT cell viability assay, HCT116. Format: cell-based. The settings on record: 48 h, read-out: Cell viability as a percentage of the cells treated with DMSO, HCT116. The gist of the method:
as §1

Assay [7] relates to human hepatoma HepG2 cells. Briefly: MTT cell viability assay, HepG2. Format: cell-based. As to conditions: 48 h, read-out: Cell viability as a percentage of the cells treated with DMSO, HepG2. Summed up: as §1

For `COc1cc(C(=O)OC2CCC3CCCCC3C2)ccc1N` (stereo not drawn) [XD-32, decahydro-naphthalen-2-yl 4-amino-3-methoxybenzoate], the viability (usually a read-out of living cells in per cent, often relative to untreated cells) at 20 µM is 73% in assay [1] (20 uM); 100 ± 7% in assay [3] (20 uM); 80 ± 7% in assay [4] (HCT-15, 20 uM); 65 ± 7% in [6] (HCT-116, 20 uM); 100 ± 7% in assay [7] (20 uM). Besides, the viability at 40 µM came to 30 ± 7% in [1] (40 uM); 95 ± 7% in [3] (40 uM); 35 ± 7% in [4] (HCT-15, 40 uM); 53 ± 7% in assay [6] (HCT-116, 40 uM); 74 ± 7% in [7] (40 uM). In addition, the “mRNA level of iNOS (fold), Liver tissue” value in assay [2] (vehicle 1.06 ± 0.14) was 0.22 ± 0.12^a fold. Further, in assay [2] (vehicle 1.12 ± 0.23), the “mRNA level of iNOS (fold), Colon tissue” value is 0.45 ± 0.13^a fold. Besides, in the assay on db/db mice (vehicle 129 ± 15), the “Serum ALP (U/L)” value is recorded as 83 ± 23^a U/L. In addition, the “Serum ALT (U/L)” value with db/db mice (vehicle 377 ± 48, Table 17) is 110 ± 42^a U/L. Further, at full-length FXR (5 μM compound, positive: induction, minus: repression), the “Cell-based FXR transactivation Fold changes by 5 μM compound” value was −5. Further, the EC50 (in general, the concentration needed to bring the measured effect to its halfway point) on full-length FXR (EcRE luciferase reporter) is < 1 µM; in assay [5] (SRC1-2 peptide, read-out: EC50 (μM) of FXR binding by AlphaScreen assay recruit SRC1-2) it was < 1 µM; in [5] (SRC2-3 peptide, read-out: EC50 (μM) of FXR binding by AlphaScreen assay recruit SRC2-3), < 1 µM.
